In PubChem BioAssay (NCI):
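Protocol summary: plate cells (96-well), add compound at 5 concentrations, incubate 48 h, interpolate endpoints linearly. GI50 = concentration required for 50% inhibition of growth. TGI marks complete inhibition of growth.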

What was measured:
Experiment in all cases: NCI anticancer screen, dose series, 48 h
HOP-62 NSCLC = system: HOP-62 NSCLC
KM12 colon = system: KM12 colon
DU-145 prostate = system: DU-145 prostate
HCT-15 colon = system: HCT-15 colon
MOLT-4 leukemia = system: MOLT-4 leukemia
MDA-MB-435 = system: MDA-MB-435
SF-539 CNS = system: SF-539 CNS
SF-268 CNS = system: SF-268 CNS
OVCAR-5 ovarian = system: OVCAR-5 ovarian
SW-620 colon = system: SW-620 colon
OVCAR-8 ovarian = system: OVCAR-8 ovarian
SK-MEL-2 melanoma = system: SK-MEL-2 melanoma
BT-549 breast = system: BT-549 breast
HCT-116 colon = system: HCT-116 colon
SN12C renal = system: SN12C renal
OVCAR-3 ovarian = system: OVCAR-3 ovarian
SNB-19 CNS = system: SNB-19 CNS
NCI-H522 lung = system: NCI-H522 lung
LOX IMVI melanoma = system: LOX IMVI melanoma
NCI/ADR-RES ovarian = system: NCI/ADR-RES ovarian
MDA-MB-231 breast = system: MDA-MB-231 breast
NCI-H23 lung = system: NCI-H23 lung
MALME-3M melanoma = system: MALME-3M melanoma
PC-3 prostate = system: PC-3 prostate
ACHN renal = system: ACHN renal
U251 CNS = system: U251 CNS
CAKI-1 renal = system: CAKI-1 renal
A498 renal = system: A498 renal
K-562 leukemia = system: K-562 leukemia
SK-OV-3 ovarian = system: SK-OV-3 ovarian
UACC-257 melanoma = system: UACC-257 melanoma
MCF7 breast = system: MCF7 breast
SR leukemia = system: SR leukemia
786-0 renal = system: 786-0 renal
HS 578T breast = system: HS 578T breast
HT29 colon = system: HT29 colon
HL-60(TB) leukemia = system: HL-60(TB) leukemia
COLO 205 colon = system: COLO 205 colon
UO-31 renal = system: UO-31 renal
M14 melanoma = system: M14 melanoma
SNB-75 CNS = system: SNB-75 CNS
RPMI-8226 leukemia = system: RPMI-8226 leukemia
NCI-H460 lung = system: NCI-H460 lung
SK-MEL-28 melanoma = system: SK-MEL-28 melanoma
SF-295 CNS = system: SF-295 CNS
SK-MEL-5 melanoma = system: SK-MEL-5 melanoma
A549 NSCLC = system: A549 NSCLC
CCRF-CEM leukemia = system: CCRF-CEM leukemia
OVCAR-4 ovarian = system: OVCAR-4 ovarian

Compound: Clc1ccc([I+]c2ccc(Cl)cc2Cl)c(Cl)c1
- GI50 (HOP-62 NSCLC): 2.27 µM
- TGI (HOP-62 NSCLC): 4.91 µM
- GI50 (KM12 colon): 2.13 µM
- TGI (KM12 colon): 4.47 µM
- GI50 (DU-145 prostate): 1.92 µM
- TGI (DU-145 prostate): 3.51 µM
- GI50 (HCT-15 colon): 2.06 µM
- TGI (HCT-15 colon): 5.25 µM
- GI50 (MOLT-4 leukemia): 2.5 µM
- TGI (MOLT-4 leukemia): 6.62 µM
- GI50 (MDA-MB-435): 1.96 µM
- TGI (MDA-MB-435): 4.33 µM
- GI50 (SF-539 CNS): 1.8 µM
- TGI (SF-539 CNS): 3.39 µM
- GI50 (SF-268 CNS): 2.14 µM
- TGI (SF-268 CNS): 4.99 µM
- GI50 (OVCAR-5 ovarian): 1.8 µM
- TGI (OVCAR-5 ovarian): 3.8 µM
- GI50 (SW-620 colon): 1.25 µM
- TGI (SW-620 colon): 3.75 µM
- GI50 (OVCAR-8 ovarian): 2.1 µM
- TGI (OVCAR-8 ovarian): 4.8 µM
- GI50 (SK-MEL-2 melanoma): 2.62 µM
- TGI (SK-MEL-2 melanoma): 5 µM
- GI50 (BT-549 breast): 2.02 µM
- TGI (BT-549 breast): 4.06 µM
- GI50 (HCT-116 colon): 1.85 µM
- TGI (HCT-116 colon): 3.67 µM
- GI50 (SN12C renal): 1.85 µM
- TGI (SN12C renal): 3.9 µM
- GI50 (OVCAR-3 ovarian): 1.65 µM
- TGI (OVCAR-3 ovarian): 3.09 µM
- GI50 (SNB-19 CNS): 4.28 µM
- TGI (SNB-19 CNS): 15.9 µM
- GI50 (NCI-H522 lung): 1.62 µM
- TGI (NCI-H522 lung): 3.01 µM
- GI50 (LOX IMVI melanoma): 1.77 µM
- TGI (LOX IMVI melanoma): 3.36 µM
- GI50 (NCI/ADR-RES ovarian): 9.47 µM
- TGI (NCI/ADR-RES ovarian): 32 µM
- GI50 (MDA-MB-231 breast): 2.04 µM
- TGI (MDA-MB-231 breast): 4.42 µM
- GI50 (NCI-H23 lung): 2.13 µM
- TGI (NCI-H23 lung): 4.83 µM
- GI50 (MALME-3M melanoma): 1.73 µM
- TGI (MALME-3M melanoma): 3.61 µM
- GI50 (PC-3 prostate): 1.94 µM
- TGI (PC-3 prostate): 4.72 µM
- GI50 (ACHN renal): 1.89 µM
- TGI (ACHN renal): 3.77 µM
- GI50 (U251 CNS): 1.77 µM
- TGI (U251 CNS): 3.38 µM
- GI50 (CAKI-1 renal): 1.61 µM
- TGI (CAKI-1 renal): 3.32 µM
- GI50 (A498 renal): 1.76 µM
- TGI (A498 renal): 6.98 µM
- GI50 (K-562 leukemia): 2.03 µM
- TGI (K-562 leukemia): 5.1 µM
- GI50 (SK-OV-3 ovarian): 4.17 µM
- TGI (SK-OV-3 ovarian): 12 µM
- GI50 (UACC-257 melanoma): 2.38 µM
- TGI (UACC-257 melanoma): 5.8 µM
- GI50 (MCF7 breast): 1.87 µM
- TGI (MCF7 breast): > 100 µM
- GI50 (SR leukemia): 2.19 µM
- TGI (SR leukemia): 5.65 µM
- GI50 (786-0 renal): 2.09 µM
- TGI (786-0 renal): 4.36 µM
- GI50 (HS 578T breast): 2.48 µM
- TGI (HS 578T breast): 8.81 µM
- GI50 (HT29 colon): 1.78 µM
- TGI (HT29 colon): 3.26 µM
- GI50 (HL-60(TB) leukemia): 2.09 µM
- TGI (HL-60(TB) leukemia): 4.58 µM
- GI50 (COLO 205 colon): 1.95 µM
- TGI (COLO 205 colon): 3.64 µM
- GI50 (UO-31 renal): 1.48 µM
- TGI (UO-31 renal): 2.98 µM
- GI50 (M14 melanoma): 2.58 µM
- TGI (M14 melanoma): 6.07 µM
- GI50 (SNB-75 CNS): 1.88 µM
- TGI (SNB-75 CNS): 5.39 µM
- GI50 (RPMI-8226 leukemia): 2.19 µM
- TGI (RPMI-8226 leukemia): 5.25 µM
- GI50 (NCI-H460 lung): 2.35 µM
- TGI (NCI-H460 lung): 5.39 µM
- GI50 (SK-MEL-28 melanoma): 7.14 µM
- TGI (SK-MEL-28 melanoma): 21.1 µM
- GI50 (SF-295 CNS): 2.58 µM
- TGI (SF-295 CNS): 7.57 µM
- GI50 (SK-MEL-5 melanoma): 6.04 µM
- TGI (SK-MEL-5 melanoma): 20.3 µM
- GI50 (A549 NSCLC): 2.66 µM
- TGI (A549 NSCLC): 7.71 µM
- GI50 (CCRF-CEM leukemia): 2.09 µM
- TGI (CCRF-CEM leukemia): 5.32 µM
- GI50 (OVCAR-4 ovarian): 1.95 µM
- TGI (OVCAR-4 ovarian): 4.52 µM
